Test results reported in US7368578B2, “Five-membered heterocyclic compounds” (Takeda Pharmaceutical Company Limited, priority 2002, dated 2008).

Assays:
human PPARγ1 = target: T1, human PPARγ1 (Homo sapiens, UniProt P37231); assay: Human PPARγ1 antagonist assay (luciferase reporter in PPARγ:RXRα:4ERPP/CHO-K1 cells); format: cell-based; settings: 10 nM compound A as stimulant, luciferase activity, 24 hrs, read-out: Inhibitory rate (%); for inhibition at 1 µM: test compound 10^−6 M
T1 construct: expressed in transfected cells; host or cells: CHO-K1 cells stably transfected with pVgRXR2-hPPARγ and reporter plasmid pGL3-4ERPP-TK neo
T1 sequence (P37231 1-477 isoform P37231-2): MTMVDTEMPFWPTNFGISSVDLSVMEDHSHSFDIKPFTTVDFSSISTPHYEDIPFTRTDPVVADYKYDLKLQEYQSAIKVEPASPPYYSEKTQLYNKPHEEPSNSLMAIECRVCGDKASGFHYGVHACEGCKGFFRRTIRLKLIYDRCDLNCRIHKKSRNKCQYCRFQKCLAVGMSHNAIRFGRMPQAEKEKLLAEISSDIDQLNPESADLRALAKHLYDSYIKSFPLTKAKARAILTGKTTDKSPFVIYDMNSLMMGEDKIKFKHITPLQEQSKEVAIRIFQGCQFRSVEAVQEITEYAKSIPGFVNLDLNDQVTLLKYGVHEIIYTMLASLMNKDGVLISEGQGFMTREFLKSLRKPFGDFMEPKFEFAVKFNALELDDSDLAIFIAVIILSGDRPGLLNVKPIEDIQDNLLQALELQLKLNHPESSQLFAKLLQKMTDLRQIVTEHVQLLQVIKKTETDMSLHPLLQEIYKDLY
T1 sequence (P19793 1-462 partner): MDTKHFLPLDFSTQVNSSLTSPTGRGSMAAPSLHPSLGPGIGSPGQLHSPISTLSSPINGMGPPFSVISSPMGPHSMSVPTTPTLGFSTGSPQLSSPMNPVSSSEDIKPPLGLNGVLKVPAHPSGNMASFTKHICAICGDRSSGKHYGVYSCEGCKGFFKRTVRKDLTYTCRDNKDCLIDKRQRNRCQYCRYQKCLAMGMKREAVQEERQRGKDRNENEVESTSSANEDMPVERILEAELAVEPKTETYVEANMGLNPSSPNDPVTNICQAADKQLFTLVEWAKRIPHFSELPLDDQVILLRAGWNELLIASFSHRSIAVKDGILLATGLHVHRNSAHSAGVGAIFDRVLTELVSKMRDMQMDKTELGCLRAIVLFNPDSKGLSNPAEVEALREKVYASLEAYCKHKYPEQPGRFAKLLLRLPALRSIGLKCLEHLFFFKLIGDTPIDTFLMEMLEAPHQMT
Experimental: PPARγ:RXRα:4ERPP/CHO-K1 cells (obtained in Reference Example 5a) cultured in Ham's F-12 medium (GIBCO, Inc.) supplemented with 10% fetal bovine serum (TRACE SCIENTIFIC, Ltd.) were seeded in a well of a 96 well white plate at 2×10^4 cells/well and cultured under 37° C. 5% CO2 conditions for 24 hrs. After removal of the medium, Ham's F-12 medium (GIBCO) containing 60 μl of 0.1% BSA (not containing fatty acid) (Wako Pure Chemical Industries, Ltd.), 20 μl of 10^−5M or 10^−6 M test compound and 20 μl of compound A having a final concentration of 10 nM as a stimulant were added, and the cells were cultured under 37° C. 5% CO2 conditions for 24 hrs. After removal of the medium, 40 μl of Pickagene LT7.5 (Wako Pure Chemical Industries, Ltd.) 2-fold diluted with HBSS (HANKS' BALANCED SALT SOLUTION) (BIO WHITTAKER Inc.) was added. After stirring, luciferase activity was measured using 1420 ARVO Multilabel Counter (Wallac, Inc.). In addition, a test similar to the above was conducted for the non-use of the aforementioned test compound alone and for the non-use of the aforementioned test compound and compound A to determine the luciferase activity.
The human PPARγ1 antagonistic activity of the test compound was evaluated using percentages (% inhibition) wherein the luciferase activity when 10 nM compound A alone was added was 0%, and the luciferase activity when the test compound and compound A were not added was 100%. The concentration of the test compound was 10^−5 M for the compounds of Example 42 and 315 and 10^−6 M for other test compounds.
After a CHO-K1 cell cultured in a cell culture flask (150 cm^2) (produced by Corning Costar Corporation, USA) containing Ham's F-12 medium (produced by Life Technologies, Inc., USA) supplemented with 10% fetal bovine serum (produced by Life Technologies, Inc., USA) was detached by treating with 0.5 g/L trypsin-0.2 g/L EDTA (ethylenediaminetetraacetic acid) (produced by Life Technologies, Inc., USA), the cell was washed with PBS (phosphate-buffered saline) (produced by Life Technologies, Inc., USA), centrifuged (1000 rpm, 5 minutes), and then suspended in PBS. Subsequently, the DNA was introduced into the cells under the conditions shown below using GENE PULSER (produced by Bio-Rad Laboratories, USA).
Namely, to a cuvette having a 0.4 cm gap, added were 8×10^6 cells and 10 μg of plasmid pVgRXR2-hPPARγ obtained in Reference Example 4a and 10 μg of reporter plasmid pGL3-4ERPP-TK neo obtained in Reference Example 2a, which was subjected to electroporation at the voltage of 0.25 kV under the capacitance of 960 μF. Subsequently, the cell was transferred into a Ham's F-12 medium containing 10% fetal bovine serum and cultured for 24 hours and then the cells were detached again and centrifuged, and then suspended in HAM F12 medium containing 10% fetal bovine serum supplemented with 500 μg/ml of GENETICIN (produced by Life Technologies, Inc., USA) and 250 μg/ml of ZEOCIN (produced by Invitrogen, USA). The obtained suspension was diluted to the density of 10^4 cells/ml and inoculated to a 96-well plate (produced by Corning Costar Corporation, USA), which was cultured in a CO2 gas incubator at 37° C., whereby obtaining a GENETICIN- and ZEOCIN-resistant transformant. Subsequently, after the transformant cell line thus obtained was cultured in a 24-well plate (produced by Corning Costar Corporation, USA), selected was a cell line in which the luciferase was expressed and induced, i.e., PPARγ:RXRα:4ERPP/CHO-K1 cell by the addition of 10 μM pioglitazone hydrochloride.

inhibition at 10 µM (human PPARγ1; test compound 10^−5 M) [%]	melting point [°C]	inhibition at 1 µM (human PPARγ1) [%]	SMILES
–	137 to 138	63	COc1cc(COc2nn(-c3ccccc3)cc2C=O)ccc1OCc1nc(-c2ccco2)oc1C [Example 76, 3-[(4-{[2-(2-furyl)-5-methyl-1,3-oxazol-4-yl]methoxy}-3-methoxybenzyl)oxy]-1-phenyl-1H-pyrazole-4-carbaldehyde]
–	167 to 168	51	COc1cc(COc2nn(-c3ccccc3)cc2C#N)ccc1OCc1nc(-c2ccco2)oc1C [Example 77, 3-[(4-{[2-(2-furyl)-5-methyl-1,3-oxazol-4-yl]methoxy)-3-methoxybenzyl)oxy]-1-phenyl-1H-pyrazole-4-carbonitrile]
–	–	110	CCc1nc(/C=C/c2cn(-c3ccccc3)nc2OCc2ccc(OCc3nc(-c4ccc(CC(=O)O)cc4)oc3C)c(OC)c2)cs1 [Example 337, {4-[4-({4-[({4-[(E)-2-(2-ethyl-1,3-thiazol-4-yl)ethenyl]-1-phenyl-1H-pyrazol-3-yl}oxy)methyl]-2-methoxyphenoxy}methyl)-5-methyl-1,3-oxazol-2-yl]phenyl}acetic acid]
–	–	103	COc1cc(COc2nn(-c3ccccc3)cc2/C=C/c2csc(C)n2)ccc1OCc1nc(-c2ccc(CC(=O)O)cc2)oc1C [Example 357, {4-[4-({2-methoxy-4-[({4-[(E)-2-(2-methyl-1,3-thiazol-4-yl)ethenyl]-1-phenyl-1H-pyrazol-3-yl}oxy)methyl]phenoxy}methyl)-5-methyl-1,3-oxazol-2-yl]phenyl}acetic acid]
–	–	110	COc1cc(COc2nn(-c3ccccc3)cc2/C=C/c2csc(C(C)C)n2)ccc1OCc1nc(-c2ccc(CC(=O)O)cc2)oc1C [Example 361, {4-[4-({4-[({4-[(E)-2-(2-isopropyl-1,3-thiazol-4-yl)ethenyl]-1-phenyl-1H-pyrazol-3-yl}oxy)methyl]-2-methoxyphenoxy}methyl)-5-methyl-1,3-oxazol-2-yl]phenyl}acetic acid]
–	–	108	CCc1nc(/C=C/c2cn(-c3ccccc3)nc2OCc2ccc(OCc3nc(-c4ccc(CC(=O)O)cc4)oc3C)c(OC)c2)co1 [Example 369, {4-[4-({4-[({4-[(E)-2-(2-ethyl-1,3-oxazol-4-yl)ethenyl]-1-phenyl-1H-pyrazol-3-yl}oxy)methyl]-2-methoxyphenoxy}methyl)-5-methyl-1,3-oxazol-2-yl]phenyl}acetic acid]
–	–	111	COc1cc(COc2nn(-c3ccccc3)cc2/C=C/c2coc(C(C)C)n2)ccc1OCc1nc(-c2ccc(CC(=O)O)cc2)oc1C [Example 370, {4-[4-({4-[({4-[(E)-2-(2-isopropyl-1,3-oxazol-4-yl)ethenyl]-1-phenyl-1H-pyrazol-3-yl}oxy)methyl]-2-methoxyphenoxy}methyl)-5-methyl-1,3-oxazol-2-yl]phenyl}acetic acid]

Further lines, the compound ahead of its results:

SMILES	inhibition at 10 µM (human PPARγ1; test compound 10^−5 M) [%]	melting point [°C]	inhibition at 1 µM (human PPARγ1) [%]
Cc1oc(-c2ccco2)nc1COc1ccc(COc2nn(Cc3ccccc3)cc2C=O)cn1 [Example 42, 1-benzyl-3-[(6-{[2-(2-furyl)-5-methyl-1,3-oxazol-4-yl]methoxy}-3-pyridinyl)methoxy]-1H-pyrazole-4-carbaldehyde]	50	104 to 105	–
CCOC(=O)c1cn(-c2ccccc2)nc1OCc1ccc(OCc2nc(-c3ccco3)oc2C)c(OC)c1 [Example 72, ethyl 3-[(4-{[2-(2-furyl)-5-methyl-1,3-oxazol-4-yl]methoxy}-3-methoxybenzyl)oxy]-1-phenyl-1H-pyrazole-4-carboxylate]	–	150 to 151	62
COc1cc(COc2nn(-c3ccccc3)cc2CO)ccc1OCc1nc(-c2ccco2)oc1C [Example 75, {3-[(4-{[2-(2-furyl)-5-methyl-1,3-oxazol-4-yl]methoxy}-3-methoxybenzyl)oxy]-1-phenyl-1H-pyrazol-4-yl}methanol]	–	–	70
CCOP(=O)(CCc1cn(-c2ccccc2)nc1OCc1ccc(OCc2nc(-c3ccco3)oc2C)c(OC)c1)OCC [Example 100, diethyl 2-{3-[(4-{[2-(2-furyl)-5-methyl-1,3-oxazol-4-yl]methoxy}-3-methoxybenzyl)oxy]-1-phenyl-1H-pyrazol-4-yl}ethylphosphonate]	–	–	74
CCOP(=O)(/C=C/c1cn(-c2ccccc2)nc1OCc1ccc(OCc2nc(-c3ccco3)oc2C)c(OC)c1)OCC [Example 116 (E form), diethyl (E)-2-{3-[(4-{[2-(2-furyl)-5-methyl-1,3-oxazol-4-yl]methoxy}-3-methoxybenzyl)oxy]-1-phenyl-1H-pyrazol-4-yl}ethenylphosphonate]	–	–	97
CCOP(=O)(/C=C/c1cn(-c2ccccc2)nc1OCc1ccc(OCc2nc(-c3ccc(CC(=O)O)cc3)oc2C)c(OC)c1)OCC [Example 241, {4-[4-({4-[({4-[(E)-2-(diethoxyphosphoryl)ethenyl]-1-phenyl-1H-pyrazol-3-yl}oxy)methyl]-2-methoxyphenoxy}methyl)-5-methyl-1,3-oxazol-2-yl]phenyl}acetic acid]	–	–	113
CCOP(=O)(/C=C/c1cn(-c2ccccc2)nc1OCc1ccc(OCc2nc(-c3cccc(CC(=O)O)c3)oc2C)c(OC)c1)OCC [Example 249, {3-[4-({4-[({4-[(E)-2-(diethoxyphosphoryl)ethenyl]-1-phenyl-1H-pyrazol-3-yl}oxy)methyl]-2-methoxyphenoxy}methyl)-5-methyl-1,3-oxazol-2-yl]phenyl}acetic acid]	–	–	108
CCOP(=O)(/C=C/c1cn(-c2ccccc2)nc1OCc1ccc(OCc2nc(-c3cccc(-c4nnn[nH]4)c3)oc2C)c(OC)c1)OCC [Example 336, {(E)-2-(3-{[3-methoxy-4-({5-methyl-2-[3-(1H-tetrazol-5-yl)phenyl]-1,3-oxazol-4-yl}methoxy)benzyl]oxy}-1-phenyl-1H-pyrazol-4-yl)ethenyl}phosphonate diethyl]	–	–	102
